Results published in patent publication US20130296344A1, “CHROMENE DERIVATIVES AND THEIR ANALOGA AS WNT PATHWAY ANTAGONISTS” (Ruprecht-Karls-Universitat Heidelberg, priority 2010, published 2013).
Where two headings read alike, the source gives them in different places.

Key:
[1] = system: HCT116 colon carcinoma cells; experiment: Antiproliferative activity against HCT116 colon carcinoma cells (nuclei count); format: cell-based, human
Description: (§1) For examination of cell line-specific cytotoxicity, compounds were applied to human colorectal cancer cells (HCT116, denoted (1); SW480, denoted (2); Dld-1, denoted (3)) and human fibroblasts (HS-68, denoted (4)), cultured in Mc Coy's ((1)) and Dulbecco's Modified Eagles Medium ((2)-(4)), supplemented with 10% ((1)-(3)) and 20% ((4)) fetal calf serum and 1% penicillin/streptomycin. Cells were grown in T75 flasks at 37° C., 5% CO2 and trypsinized when 60-80% confluent by adding 2 ml of 0.25% Trypsin-EDTA (ethylenediaminetetraacetic acid) solution. Cells were then re-suspended into culture medium yielding approx. 750 cells, suspended in 45 microl medium, were plated into each well of a black 384-well plate for fluorescence imaging experiments. 24-36 hr later 5 microl compound solution (100 microM compound dissolved in ultra pure water containing 1% DMSO (dimethylsulfoxide)), were added to achieve a final concentration of 10 microM and were incubated for at least 72 hr. Compound incubation was terminated by (a) fixation and (b) permeabilisation of cells, followed by (c) fluorescence labeling of cell nuclei for cytometric quantification or by immunocytochemistry for microscopic evaluation of cell morphology. […] Solutions were incubated for 15 (a,b) and 30 min (c) in the dark at room temperature. Cells were washed twice between each step with 30 microl PBS. The assay system was miniaturized and adapted to automated workflow using liquid-handling robotics.
(§2) Cell line-specific cytotoxicity was quantified by counting the number of Hoechst labeled nuclei per well of a 384-well plate using a plate cytometer. Data obtained with the cytometer was analysed using standard data analysis software.
(§3) The examination of the antiproliferative activity against human colon carcinoma cells Dld1, HCT116 and SW480 was carried out in analogy to the procedure carried out for HS68. The respective compound applied in increasing concentrations yielding final concentrations per well of 5 nM-90 microM.

[2] = Cytotoxicity in HepG2 (CellTiterGlo); format: cell-based; conditions: human, HepG2 cells, 24 h after compound addition, 5 nM-100 microM, read-out: HepG2 IC50 (cytotoxic activity)
Description: (§4) For examination of cytotoxicity in these cancer cell lines the commercial available CellTiterGlo® Reagent (Promega, USA) was used according to the manufactor. Compounds were applied to Hek293T (denoted (a)) or HepG2 (denoted (b)), cultured in Dulbecco's Modified Eagles Medium, supplemented with 10% fetal calf serum and 1% penicillin/streptomycin. Cells were grown in T75 flasks at 37° C., 5% CO2 and trypsinized when 60-80% confluent by adding 2 ml of 0.25% Trypsin-EDTA solution. Cells were then re-suspended into culture medium yielding approx. 4000 cells (a) or 4500 cells (b), suspended in 30 microl medium. 48 h after cell seeding, compounds were added to yield the desired final concentrations. 24 h after compound addition cytotoxicity was evaluated. For this purpose the media was removed and CellTiterGlo® was added according to the manufactors manual. In this assay the luciferase emission readout is directly correlated with the cellular amount of ATP, low luciferase emission thus is reflecting cytotoxicity of a compound.

Wnt pathway (Wnt1/Frzd8) = experiment: Wnt signaling pathway reporter gene assay (6xTCF-luciferase, Wnt1/Frizzled 8/LRP6 stimulated Hek293T cells); format: cell-based, mouse (Wnt1, human (LRP6)
Description: To screen for small-molecule modulators of the Wnt signaling pathway, a reporter gene based assay describing the modulation of the TCF4 transcription factor was used. […]

[3] = Cytotoxicity in Hek293T (CellTiterGlo); format: cell-based; conditions: human, Hek293T cells, 24 h after compound addition, 5 nM-100 microM, read-out: Hek293T IC50 (cytotoxic activity)
Description: as §4

[4] = system: Dld1 colon carcinoma cells; experiment: Antiproliferative activity against Dld1 colon carcinoma cells (nuclei count); format: cell-based, human
Description: as §1, §2, §3

[5] = system: human fibroblasts (HS-68); experiment: Cell line specific cytotoxicity, normal cells HS68 (nuclei count); format: cell-based; conditions: at least 72 hr incubation, Hoechst nuclei count, read-out: HS68 IC50 (influence on normal cells)
Description: as §1, §2
Identified hits were further evaluated by visual inspection of fluorescence micrographs obtained from imaging using a conventional fluorescence microscope.

[6] = system: SW480 colon carcinoma cells; experiment: Antiproliferative activity against SW480 colon carcinoma cells (nuclei count); format: cell-based; conditions: Homo sapiens, 5 nM-90 microM
Description: as §1, §2, §3

[7] = Homo sapiens, HCT-116, colon carcinoma cells, 5 nM-90 microM, nuclei count, read-out: HCT116 IC50
[8] = Homo sapiens, HEK-293T, Hek293T, 6xTCF-luciferase reporter, 24 h incubation, 5 nM-100 microM, read-out: Wnt1/Frzd8 IC50 (Wnt pathway inhibitory activity)
[9] = Homo sapiens, DLD-1, colon carcinoma cells, 5 nM-90 microM, nuclei count, read-out: Dld1 IC50
[10] = Table 7, racemate vs enantiomers, procedure of example 56, read-out: IC50 against colon cancer cell lines HCT 116
[11] = Table 7, racemate vs enantiomers, procedure of example 54, read-out: IC50 against Wnt-Pathway
[12] = Table 7, racemate vs enantiomers, procedure of example 56, read-out: IC50 against colon cancer cell lines DLDl
[13] = Homo sapiens, HEK-293T, 24 h, Hek293T, 6xTCF-luciferase reporter, 24 h incubation, 5 nM-100 microM, read-out: Wnt1/Frzd8 IC50 (Wnt pathway inhibitory activity)

IC50 (Wnt pathway (Wnt1/Frzd8); [13]) [nM]	SMILES	IC50 ([1]; Homo sapiens, HCT-116, Table 7, racemate vs enantiomers, procedure of example 56, read-out: IC50 against colon cancer cell lines HCT 116) [nM]	IC50 [1, 7] [nM]	IC50 at 24 h [2] [nM]	IC50 (Wnt pathway (Wnt1/Frzd8); [8]) [nM]	IC50 (Wnt pathway (Wnt1/Frzd8); Homo sapiens, HEK-293T, Table 7, racemate vs enantiomers, procedure of example 54, read-out: IC50 against Wnt-Pathway) [nM]	IC50 at 24 h [3] [nM]	IC50 ([4]; Homo sapiens, DLD-1, Table 7, racemate vs enantiomers, procedure of example 56, read-out: IC50 against colon cancer cell lines DLDl) [nM]	IC50 [4, 9] [nM]	IC50 [1, 10] [nM]	IC50 (Wnt pathway (Wnt1/Frzd8); [11]) [nM]	IC50 [4, 12] [nM]	IC50 [5] [nM]	IC50 [6] [nM]
–	COc1cc(C2C(C#N)=C(N)Oc3c2ccc2ccc(N)nc32)cc(Br)c1OC (racemic) [(20), 3,6-Diamino-1-(3-bromo-4,5-dimethoxy-phenyl)-1H-4-oxa-5-aza-phenanthrene-2-carbonitrile]	5	15	37000	6	5	> 90000	10	14	–	–	–	–	–
–	COc1cc(C2C(C#N)=C(N)Oc3c2ccc2ccc(N)nc32)cc(Br)c1OC (single isomer, unassigned) [(20)-1, 3,6-Diamino-1-(3-bromo-4,5-dimethoxy-phenyl)-1H-4-oxa-5-aza-phenanthrene-2-carbonitrile]	–	–	–	–	–	–	–	–	< 5	< 5	< 5	–	–
–	COc1cc(C2C(C#N)=C(N)Oc3c2ccc2ccc(N)nc32)cc(Br)c1OC (single isomer, unassigned) [(20)-2, 3,6-Diamino-1-(3-bromo-4,5-dimethoxy-phenyl)-1H-4-oxa-5-aza-phenanthrene-2-carbonitrile]	–	–	–	–	–	–	–	–	354	330	356	–	–
–	COc1cc(C2C(C#N)=C(N)Oc3c2ccc2ccccc32)cc(Br)c1OC (stereo not shown) [(1), 2-Amino-4-(3-bromo-4,5-dimethoxy-phenyl)-4H-benzo[h]chromene-3-carbonitrile]	–	49	> 90000	46	–	> 90000	–	38	–	–	–	87	56
86	C=CCOc1c(Br)cc(C2C(C(=O)OCC)=C(N)Oc3c2ccc2ccccc32)cc1OC (stereo not shown) [(4), 4-(4-Allyloxy-3-bromo-5-methoxy-phenyl)-2-amino-4H-benzo[h]chromene-3-carboxylic acid ethyl ester]	–	146	> 90000	–	–	> 90000	–	171	–	–	–	215	332
855	CCOC(=O)C1=C(N)Oc2c(ccc3ccccc23)C1c1cc(Br)c(OC)c(OC)c1 (stereo not shown) [(6), 2-Amino-4-(3-bromo-4,5-dimethoxy-phenyl)-4H-benzo[h]chromene-3-carboxylic acid ethyl ester]	–	8600	> 90000	–	–	> 90000	–	3820	–	–	–	> 90000	5960
–	N#CC1=C(N)Oc2c(ccc3ccccc23)C1c1cc(F)c(F)c(F)c1 (stereo not shown) [(7), 2-Amino-4-(3,4,5-trifluoro-phenyl)-4H-benzo[h]chromene-3-carbonitrile]	–	922	> 90000	316	–	> 90000	–	474	–	–	–	> 90000	2860
–	COc1cc(C2C(C#N)=C(N)Oc3c2ccc2ccc(C)nc32)cc(Br)c1OC (stereo not shown) [(16), 3-Amino-1-(3-bromo-4,5-dimethoxy-phenyl)-6-methyl-1H-4-oxa-5-aza-phenanthrene-2-carbonitrile]	–	3340	> 90000	1130	–	> 90000	–	2900	–	–	–	4940	3160
